The record followed here is patent publication US10710996B2, “Pyrido-azaheterecydic compound and preparation method and use thereof” (SHANGHAI INSTITUTE OF MATERIA MEDICA, CHINESE ACADEMY OF …, priority 2015, dated 2020).

Structures are written as SMILES.

T1 sequence (P08581 1078-1345 limits assumed): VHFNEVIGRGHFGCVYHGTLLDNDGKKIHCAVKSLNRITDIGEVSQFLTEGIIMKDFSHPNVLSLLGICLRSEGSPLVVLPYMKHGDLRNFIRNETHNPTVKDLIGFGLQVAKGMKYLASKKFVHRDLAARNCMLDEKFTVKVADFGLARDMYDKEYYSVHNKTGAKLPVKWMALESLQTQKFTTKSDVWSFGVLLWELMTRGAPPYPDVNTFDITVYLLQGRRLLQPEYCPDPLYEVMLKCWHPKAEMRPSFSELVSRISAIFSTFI

For one experiment, the system named is EBC-1 cells. The experiment is described as follows: Inhibition of c-Met-mediated EBC-1 cell proliferation (SRB staining). It is filed as cell-based. Conditions: Homo sapiens, 72 hours treatment. How it is done:
The inhibitory effect of the compounds on the growth of non-small cell cancer EBC-1 cell (a cell line in which Met is continually activated due to the amplification of MET gene, and is a Met-dependent tumor cell line) was measured by sulforhodamine B (SRB) staining assay. A certain amount of EBC-1 cells in their logarithmic growth phase were seeded in 96-well plates at 90 μL per well and cultured overnight, then 10 μL of different concentrations of compounds or solvent control were added thereto, three wells for each concentration. After treated by the compound for 72 hours, the adherent cells were removed of culture medium and fixed with 10% (w/v) trichloroacetic acid (100 μL/well) at 4° C. for 1 hr followed by rinsing with distilled water five times. After drying at room temperature, 100 μL of SRB solution (dissolved in 1% glacial acetic acid at 4 mg/mL) was added to each well to incubate and stain the cells for 15 min at room temperature, then unbound SRB was washed off with 1% glacial acetic acid for five times. After drying at room temperature, 100 μL of 10 mM Tris solution was added to each well. The optical density (OD value) at 515 nm was read on a VERSMax microplate reader. […] The experiment was repeated twice. The IC50 data was calculated as a range based on the test results of concentrations set in the initial screening test.
For orientation: Sulforhodamine B stains cellular protein and so reports cell mass.
Take `CN1CCN(CCOc2cnc3nccc(Oc4ccc(NC(=O)C5(C(=O)Nc6ccc(F)cc6)CC5)cc4F)c3n2)CC1` [Compound 66S, N-(3-fluoro-4-((2-(2-(4-methylpiperazin-1-yl)ethoxy)pyrido[2,3-b]pyrazin-8-yl)oxy)phenyl)-N-(4-fluorophenyl) cyclopropyl-1,1-dicarboxamide]: the IC50 (usually the concentration that gives 50% inhibition) lay within 1000 to 10000 nM.

A further experiment addresses T1, c-Met kinase (Homo sapiens, UniProt P08581).
T1 construct: c-Met kinase domain recombinant protein diluted with 49 μL of the reaction buffer was added
The experiment is described as follows: Inhibitory effect on c-Met kinase activity at molecular level (ELISA).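 Note: recombinant c-Met kinase domain with 5 µM ATP, 1 h at 37 °C, substrate phosphorylation detected by anti-phosphotyrosine PY99 ELISA at 490 nm versus DMSO negative control, ATP-free wells as blank.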 Type of experiment: biochemical.
Settings: not given
On the technique in general: ELISA stands for enzyme-linked immunosorbent assay.
Compound `Nc1ccc(Oc2ccnc3c(Br)c(OCCN4CCOCC4)ncc23)c(F)c1` [Compound 4S, 4-((8-bromo-7-(2-morpholinoethoxy)-1,6-naphthyridin-4-yl)oxy)-3-fluoroaniline] showed an IC50 of 1000 to 10000 nM. Regarding `Nc1ccc(Oc2ccnc3cc(OCCN4CCOCC4)ncc23)c(F)c1` [Compound 5S], the IC50 was in the range of 100 to 1000 nM.

`O=C(Nc1ccc(F)cc1)C1(C(=O)Nc2ccc(Oc3ccnc4c(Br)c(OCCN5CCOCC5)ncc34)c(F)c2)CC1` [Compound 6S, N-(4-((8-bromo-7-(2-morpholinoethoxy)-1,6-naphthyridin-4-yl)oxy)-3-fluorophenyl)-N-(4-fluorophenyl) cyclopropyl-1,1-dicarboxamide]: the IC50 fell in the range of 10 to 100 nM. On the same count and under the same terms, the same measure for `CN1CCN(CCOc2ncc3c(Oc4ccc(NC(=O)C5(C(=O)Nc6ccc(F)cc6)CC5)cc4F)ccnc3c2Br)CC1` [Compound 10S, N-(4-((8-bromo-7-(2-(4-methylpiperazin-1-yl)ethoxy)-1,6-naphthyridin-4-yl)oxy)-3-fluorophenyl)-N-(4-fluorophenyl) cyclopropyl-1,1-dicarboxamide]: 10 to 100 nM. The same measure, in the same setting: the same measure for `CN(C(=O)C1(C(=O)Nc2ccc(Oc3ccnc4cc(OCCN5CCOCC5)ncc34)c(F)c2)CC1)c1ccc(F)cc1` [Compound 14S, N-(3-fluoro-4-((7-(2-morpholinoethoxy)-1,6-naphthyridin-4-yl)oxy)phenyl)-N-(4-fluorophenyl)-N-methylcyclopropyl-1,1-dicarboxamide]: 100 to 1000 nM. Same read-out and setting: the same measure for `O=C(Nc1ccc(F)cc1)c1cccn(-c2ccc(Oc3ccnc4cc(OCCN5CCOCC5)ncc34)c(F)c2)c1=O` [Compound 16S, 1-(3-fluoro-4-((7-(2-morpholinoethoxy)-1,6-naphthyridin-4-yl)oxy)phenyl)-N-(4-fluorophenyl)-2-oxo-1,2-dihydropyridine-3-carboxamide]: 10 to 100 nM; for `COC(=O)c1cccn(-c2ccc(Oc3ccnc4cc(OCCN5CCOCC5)ncc34)c(F)c2)c1=O` [Compound 17S, methyl 1-(3-fluoro-4-((7-(2-morpholinoethoxy)-1,6-naphthyridin-4-yl)oxy)phenyl)-2-oxo-1,2-dihydropyridine-3-carboxylate]: 1 to 10 nM; for `O=C(Cc1ccccc1)Nc1ccc(Oc2ccnc3c(Br)c(OCCN4CCOCC4)ncc23)c(F)c1` [Compound 18S, N-(4-((8-bromo-7-(2-morpholinoethoxy)-1,6-naphthyridin-4-yl)oxy)-3-fluorophenyl)-2-phenylacetamide]: 100 to 1000 nM. In turn, `O=C(Nc1ccc(Oc2ccnc3c(Br)c(OCCN4CCOCC4)ncc23)c(F)c1)c1c[nH]cc(-c2ccccc2)c1=O` [Compound 19S, N-(4-((8-bromo-7-(2-morpholinoethoxy)-1,6-naphthyridin-4-yl)oxy)-3-fluorophenyl)-4-oxo-5-phenyl-1,4-dihydropyridine-3-carboxamide] gave an IC50 of 10 to 100 nM. On to `O=C(Nc1ccc(Oc2ccnc3c(Br)c(OCCN4CCOCC4)ncc23)c(F)c1)c1c[nH]cc(-c2ccc(F)cc2)c1=O` [Compound 21S, N-(4-((8-bromo-7-(2-morpholinoethoxy)-1,6-naphthyridin-4-yl)oxy)-3-fluorophenyl)-5-(4-fluorophenyl)-4-oxo-1,4-dihydropyridine-3-carboxamide], for which the IC50 lay in the range of 10 to 100 nM. Same read-out and setting: the same measure for `O=C(Nc1ccc(F)cc1)C1(C(=O)Nc2ccc(Oc3ccnc4cc(N5CCOCC5)ncc34)c(F)c2)CC1` [Compound 27S, N-(3-fluoro-4-((7-morpholino-1,6-naphthyridin-4-yl)oxy)phenyl)-N-(4-fluorophenyl)cyclopropyl-1,1-dicarboxamide]: 10 to 100 nM. Still for that read-out and setting: the same measure for `O=C(Nc1ccc(F)cc1)C1(C(=O)Nc2ccc(Oc3ccnc4cc(N5CCC(N6CCOCC6)CC5)ncc34)c(F)c2)CC1` [Compound 28S, N-(3-fluoro-4-((7-(4-morpholinopiperidin-1-yl)--naphthyridin-4-yl)oxy)phenyl)-N-(4-fluorophenyl)cyclopropyl-1,1-dicarboxamide]: 10 to 100 nM. Same read-out and setting: the same measure for `C[C@H]1COCCN1CCOc1cc2nccc(Oc3ccc(NC(=O)C4(C(=O)Nc5ccc(F)cc5)CC4)cc3F)c2cn1` [Compound 29S, (S)-N-(3-fluoro-4-((7-(2-(3-methylmorpholino)ethoxy)-naphthyridin-4-yl)oxy)phenyl)-N-(4-fluorophenyl) cyclopropyl-1,1-dicarboxamide]: 10 to 100 nM; for `C[C@@H]1COCCN1CCOc1cc2nccc(Oc3ccc(NC(=O)C4(C(=O)Nc5ccc(F)cc5)CC4)cc3F)c2cn1` [Compound 30S, (R)-N-(3-fluoro-4-((7-(2-(3-methylmorpholino)ethoxy)-naphthyridin-4-yl)oxy)phenyl)-N-(4-fluorophenyl) cyclopropyl-1,1-dicarboxamide]: 10 to 100 nM; for `O=C(Nc1ccc(F)cc1)C1(C(=O)Nc2ccc(Oc3ccnc4cc(OCCn5ccnc5)ncc34)c(F)c2)CC1` [Compound 31S, N-(4-((7-(2-(1H-imidazol-1-yl)ethoxy)-naphthyridin-4-yl)oxy)-3-fluorophenyl)-N-(4-fluorophenyl)cyclopropyl-1,1-dicarboxamide]: 10 to 100 nM. `O=C(Nc1ccc(F)cc1)C1(C(=O)Nc2ccc(Oc3ccnc4cc(N5CCN(Cc6ccccc6)CC5)ncc34)c(F)c2)CC1` [Compound 32S, N-(4-((7-(4-benzylpiperazin-1-yl)-naphthyridin-4-yl)oxy)-3-fluorophenyl)-N-(4-fluorophenyl)cyclopropyl-1,1-dicarboxamide] showed an IC50 of 10 to 100 nM.

Compound `O=C(Nc1ccc(F)cc1)C1(C(=O)Nc2ccc(Oc3ccnc4[nH]c(=O)cnc34)c(F)c2)CC1` [Compound 33S, N-(3-fluoro-4-((3-oxo-3,4-dihydropyrido [2,3-b]pyrazin-8-yl)oxy)phenyl)-N-(4-fluorophenyl)cyclopropyl-1,1-dicarboxamide] came in with an IC50 of 100 to 1000 nM. Compound `O=C(Nc1ccc(F)cc1)C1(C(=O)Nc2ccc(Oc3ccnc4ncc(=O)[nH]c34)c(F)c2)CC1` [Compound 34S, N-(3-fluoro-4-((2-oxo-1,2-dihydropyrido [2,3-b]pyrazin-8-yl)oxy)phenyl)-N-(4-fluorophenyl)cyclopropyl-1,1-dicarboxamide] showed an IC50 of 100 to 1000 nM. Take `CCN1CCC(Nc2cc3nccc(Oc4ccc(NC(=O)c5ccnn(-c6ccc(F)cc6)c5=O)cc4F)c3cn2)C(F)C1` (stereo not drawn) [Compound 35S, N-(4-((7-((1-ethyl-3-fluoropiperidin-4-yl)amino)-1,6-naphthyridin-4-yl)oxy)-3-fluorophenyl)-2-(4-fluorophenyl)-3-oxo-2,3-dihydropyridazine-4-carboxamide]: the IC50 was in the range of 10 to 100 nM.

The compound `O=C(COc1cc2nccc(Oc3ccc(NC(=O)C4(C(=O)Nc5ccc(F)cc5)CC4)cc3F)c2cn1)N1CCOCC1` [Compound 36S, N-(3-fluoro-4-((7-(2-morpholino-2-acetoxy)-1,6-naphthyridin-4-yl)oxy)phenyl)-N-(4-fluorophenyl)cyclopropyl-1,1-dicarboxamide] came in with an IC50 of 10 to 100 nM. Compound `O=C(Nc1ccc(F)cc1)C1(C(=O)Nc2ccc(Oc3ccnc4cc(-c5ccc([N+](=O)[O-])cc5)ncc34)c(F)c2)CC1` [Compound 48S, N-(3-fluoro-4-((7-(4-nitrophenyl)-1,6-naphthyridin-4-yl)oxy)phenyl)-N-(4-fluorophenyl)cyclopropyl-1,1-dicarboxamide] came in with an IC50 of 10 to 100 nM. Same read-out and setting: under `O=C(Nc1ccc(F)cc1)C1(C(=O)Nc2ccc(Oc3ccnc4cc(-c5ccc(N6CCOCC6)cc5)ncc34)c(F)c2)CC1` [Compound 50S, N-(3-fluoro-4-((7-(4-morpholinophenyl)-1,6-naphthyridin-4-yl)oxy)phenyl)-N-(4-fluorophenyl)cyclopropyl-1,1-dicarboxamide] stands 10 to 100 nM; under `O=C(Nc1ccc(F)cc1)C1(C(=O)Nc2ccc(Oc3ccnc4cc(-c5cnoc5)ncc34)c(F)c2)CC1` [Compound 51S], 1 to 10 nM; under `O=C(Nc1ccc(F)cc1)C1(C(=O)Nc2ccc(Oc3ccnc4cc(-c5ccsn5)ncc34)c(F)c2)CC1` [Compound 52S], 100 to 1000 nM.

`Cn1cc(-c2cc3nccc(Oc4ccc(NC(=O)c5cccn(-c6ccc(F)cc6)c5=O)cc4F)c3cn2)cn1` [Compound 53S, N-(3-fluoro-4-((7-(1-methyl-1H-pyrazol-4-yl)-1,6-naphthyridin-4-yl)oxy)phenyl)-1-(4-fluorophenyl)-2-oxo-1,2-dihydropyridine-3-carboxamide] had an IC50 of 10 to 100 nM.

Compound `O=C(Nc1ccc(F)cc1)C1(C(=O)Nc2ccc(Oc3ccnc4nc(OCCCN5CCOCC5)cnc34)c(F)c2)CC1` [Compound 61S, N-(3-fluoro-4-((3-(3-morpholinopropoxy)pyrido[2,3-b]pyrazin-8-yl)oxy)phenyl)-N-(4-fluorophenyl)cyclopropyl-1,1-dicarboxamide] returned an IC50 of 10 to 100 nM.
